Literature values in patent US12357650B2, “Methods and compositions for cancer therapies that include delivery of halogenated thymidines and thymidine phosphorlylase inhibitors in combination with radiation” (Shuttle Pharmaceuticals, Inc., priority 2017, dated 2025).

System: cells
Conditions: as compared to cells without the defective DNA; cited from earlier work

## O=c1[nH]c(=O)n([C@H]2C[C@H](O)[C@@H](CO)O2)cc1Br [BUdR, 5-bromo-2′-deoxyuridine]
  increase in susceptibility of cells to the lethal effects of RT: two-three fold
